Data as given in PMC9649612, “Molecular docking and biochemical validation of (-)-syringaresinol-4-O-β-D-apiofuranosyl-(1→2)-β-D-glucopyranoside binding to an allosteric site in monoamine transporters” (Frontiers in Pharmacology, 2022).

How the values were obtained:
Type in all cases: cell-based
[1] = target: T1, hNET D473N (S2 site mutant) (Homo sapiens, UniProt P23975, D473N); experiment: APP+ transport in HeLa cells expressing hNET mutant D473N
T1 construct: expressed in transfected cells; host or cells: HeLa
Description: (§1) The mutants used for this study were constructed in the WT background carried by the expression plasmids for hSERT, hDAT, or hNET under the control of CMV promotor in pcDNA3.1 vector, respectively. All mutants were generated using the Mut Express II Fast Mutagenesis Kit (Vazyme) and confirmed by full-length DNA sequencing.
(§2) HeLa cells were cultured in Dulbecco’s Modified Eagle’s Medium supplemented with 10% fetal bovine serum, 100 units/ml penicillin, and 100 μg/ml streptomycin at 37°C in a humidified 5% CO2 incubator. Cells were plated in a 6-well culture plate and grown overnight. Cells at ∼70% confluence were transfected with hSERT, hDAT, or hNET cDNA in pcDNA3.1 by lipofectamine 2000. Transfected cells were incubated for 24 h at 37°C with 5% CO2 and then transferred into a 12-well plate placed with polylysine coated slides. After grown for additional 12–16 h, the cells were assayed for APP^+ or ASP^+ fluorescence image acquisition.
The cells expressing WT or mutants of hSERT, hDAT, or hNET were wet mounted on polylysine coated glass slides in 12-well plates and applied for the indicated treatments. In brief, the cells were washed twice with 500 μl KRH buffer containing 20 mM HEPES, pH 7.4, 120 mM NaCl, 1.3 mM KCl, 2.2 mM CaCl2, 1.2 mM MgSO4, and 0.1% (w/v) glucose. […] Excess APP^+ was then removed by rapid washing three times with 500 μl KRH buffer. The extent of APP^+ accumulated in the cells was determined by confocal imaging analysis. ASP^+ binding to SERT in the cell membrane was measured with digitonin-permeabilized cells ([Li M. et al., 2022a]). […] After removing excess ASP^+ by rapid washing three times, ASP^+ binding was determined by confocal imaging analysis.
(§3) Images were analyzed using Zen Blue software.
Nonlinear regression fits of experimental and calculated data were performed with Origin (Origin Lab). The statistical analysis given was from multiple experiments. Data with error bars in the figures represent the mean ± SD for at least 10 measurements per condition in one experiment or the mean ± SEM from at least three experiments as indicated, respectively. […]

[2] = target: T2, hSERT Q111N (S2 site mutant) (Homo sapiens, UniProt P31645, Q111N); experiment: APP+ transport in HeLa cells expressing hSERT mutant Q111N; conditions: 2 μM APP+ 5 min, intact HeLa cells, read-out: SAG IC50 for transport
T2 construct: expressed in transfected cells; host or cells: HeLa (ATCC CCL-2), transient, pcDNA3.1
Description: as §1
as §2, with “Transfected cells were incubated for 24 h at 37°C with 5% CO2 and then transferred into a 12-well plate placed with polylysine coated slides.” left out
(§4) The cells expressing WT or mutants of hSERT, hDAT, or hNET were wet mounted on polylysine coated glass slides in 12-well plates and applied for the indicated treatments. […] The extent of APP^+ accumulated in the cells was determined by confocal imaging analysis. ASP^+ binding to SERT in the cell membrane was measured with digitonin-permeabilized cells ([Li M. et al., 2022a]). […] After removing excess ASP^+ by rapid washing three times, ASP^+ binding was determined by confocal imaging analysis.
(§5) Images were analyzed using Zen Blue software. […]

[3] = target: T3, hSERT Y579A (S2 site mutant) (Homo sapiens, UniProt P31645, Y579A); experiment: APP+ transport in HeLa cells expressing hSERT mutant Y579A; conditions: 2 μM APP+ 5 min, intact HeLa cells, read-out: SAG IC50 for transport
T3 construct: expressed in transfected cells; host or cells: HeLa (ATCC CCL-2), transient, pcDNA3.1
Description: as §1
as §2, with “Transfected cells were incubated for 24 h at 37°C with 5% CO2 and then transferred into a 12-well plate placed with polylysine coated slides.” left out
as §4, §5

[4] = target: T4, hSERT P561G (S2 site mutant) (Homo sapiens, UniProt P31645, P561G); experiment: APP+ transport in HeLa cells expressing hSERT mutant P561G; conditions: 2 μM APP+ 5 min, intact HeLa cells, read-out: SAG IC50 for transport
T4 construct: expressed in transfected cells; host or cells: HeLa (ATCC CCL-2), transient, pcDNA3.1
Description: as §1
as §2, with “Transfected cells were incubated for 24 h at 37°C with 5% CO2 and then transferred into a 12-well plate placed with polylysine coated slides.” left out
as §4, §5

[5] = target: T5, hNET A477G (S2 site mutant) (Homo sapiens, UniProt P23975, A477G); experiment: APP+ transport in HeLa cells expressing hNET mutant A477G; conditions: intact HeLa cells, read-out: SAG IC50
T5 construct: expressed in transfected cells; host or cells: HeLa
Description: as §1
as §2, with “Transfected cells were incubated for 24 h at 37°C with 5% CO2 and then transferred into a 12-well plate placed with polylysine coated slides.” left out
as §4, §5

[6] = target: T6, hSERT I172F (S1 site mutant) (Homo sapiens, UniProt P31645, I172F); experiment: APP+ transport in HeLa cells expressing hSERT mutant I172F; conditions: 2 μM APP+ 5 min, intact HeLa cells, read-out: SAG IC50 for transport
T6 construct: expressed in transfected cells; host or cells: HeLa
Description: as §1
as §2, with “Transfected cells were incubated for 24 h at 37°C with 5% CO2 and then transferred into a 12-well plate placed with polylysine coated slides.” left out
as §4, §5

WT-hDAT = target: T7, WT-hDAT (Homo sapiens, UniProt Q01959); experiment: APP+ transport (uptake) in HeLa cells expressing WT-hDAT; conditions: WT hDAT; APP+ transport, intact HeLa cells; read-out: SAG IC50
T7 construct: expressed in transfected cells; host or cells: HeLa
Description: as §2, §4, §3
Nonlinear regression fits of experimental and calculated data were performed with Origin (Origin Lab). […]

[7] = target: T8, hSERT T497A (S2 site mutant) (Homo sapiens, UniProt P31645, T497A); experiment: APP+ transport in HeLa cells expressing hSERT mutant T497A; conditions: 2 μM APP+ 5 min, intact HeLa cells, read-out: SAG IC50 for transport
T8 construct: expressed in transfected cells; host or cells: HeLa (ATCC CCL-2), transient, pcDNA3.1
Description: as §1
as §2, with “Transfected cells were incubated for 24 h at 37°C with 5% CO2 and then transferred into a 12-well plate placed with polylysine coated slides.” left out
as §4, §5

[8] = target: T9, hSERT Y95F (S1 site mutant) (Homo sapiens, UniProt P31645, Y95F); experiment: APP+ transport in HeLa cells expressing hSERT mutant Y95F
T9 construct: expressed in transfected cells; host or cells: HeLa (ATCC CCL-2), transient, pcDNA3.1
Description: as §1
as §2, with “Transfected cells were incubated for 24 h at 37°C with 5% CO2 and then transferred into a 12-well plate placed with polylysine coated slides.” left out
as §4, §5

T1 sequence (P23975 whole entry D473N): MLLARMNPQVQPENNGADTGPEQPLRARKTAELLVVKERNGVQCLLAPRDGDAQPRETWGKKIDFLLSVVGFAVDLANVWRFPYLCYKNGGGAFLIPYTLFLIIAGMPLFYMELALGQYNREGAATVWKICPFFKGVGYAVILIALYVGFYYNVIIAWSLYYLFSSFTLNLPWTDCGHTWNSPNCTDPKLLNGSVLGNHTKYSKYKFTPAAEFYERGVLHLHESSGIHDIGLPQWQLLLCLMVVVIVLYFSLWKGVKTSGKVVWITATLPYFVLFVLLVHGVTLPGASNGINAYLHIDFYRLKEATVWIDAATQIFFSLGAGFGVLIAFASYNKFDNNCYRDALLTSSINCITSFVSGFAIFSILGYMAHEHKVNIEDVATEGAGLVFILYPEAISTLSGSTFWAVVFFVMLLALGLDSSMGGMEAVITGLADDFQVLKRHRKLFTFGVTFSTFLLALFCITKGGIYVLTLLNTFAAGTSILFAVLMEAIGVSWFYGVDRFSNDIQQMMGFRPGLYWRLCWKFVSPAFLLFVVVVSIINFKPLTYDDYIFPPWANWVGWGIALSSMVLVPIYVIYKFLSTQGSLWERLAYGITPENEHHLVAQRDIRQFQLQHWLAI
T7 sequence (Q01959 whole entry): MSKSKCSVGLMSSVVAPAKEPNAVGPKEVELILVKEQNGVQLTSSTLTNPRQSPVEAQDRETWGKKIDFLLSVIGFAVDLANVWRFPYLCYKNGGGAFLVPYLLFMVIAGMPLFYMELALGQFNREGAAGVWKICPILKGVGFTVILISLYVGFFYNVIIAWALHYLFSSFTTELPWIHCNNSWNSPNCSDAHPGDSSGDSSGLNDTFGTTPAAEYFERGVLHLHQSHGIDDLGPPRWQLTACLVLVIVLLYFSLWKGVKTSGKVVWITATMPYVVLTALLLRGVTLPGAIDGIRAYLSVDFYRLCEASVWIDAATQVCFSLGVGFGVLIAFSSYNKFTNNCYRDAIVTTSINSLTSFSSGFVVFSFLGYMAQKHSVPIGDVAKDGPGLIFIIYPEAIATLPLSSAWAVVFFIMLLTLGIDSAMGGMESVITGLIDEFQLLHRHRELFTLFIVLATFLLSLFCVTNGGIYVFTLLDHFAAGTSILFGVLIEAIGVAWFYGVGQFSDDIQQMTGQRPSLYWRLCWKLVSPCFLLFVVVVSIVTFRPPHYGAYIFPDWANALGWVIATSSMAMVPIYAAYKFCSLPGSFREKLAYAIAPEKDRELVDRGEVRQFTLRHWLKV
T5 sequence (P23975 whole entry A477G): as the sequence (P23975 whole entry D473N) above, with N473D, A477G counted along it

(-)-Syringaresinol-4-O-β-D-apiofuranosyl-(1→2)-β-D-glucopyranoside [SAG]
Change in SAG inhibition potency compared to WT ([1]; hNET D473N vs WT-hNET): little change
Decrease in SAG inhibition potency compared with WT ([1]; hNET D473N vs WT-hNET): less than 3 folds
IC50 ([1]; hNET D473N, intact HeLa cells, read-out: SAG IC50): 42.7 ± 4.7 µM
IC50 [2]: 19.1 ± 2.2 µM
IC50 [3]: 127 ± 3 µM
IC50 [4]: > 1000 µM
IC50 [5]: > 1000 µM
IC50 [6]: 12.5 ± 0.97 µM
IC50 (WT-hDAT): 31.9 ± 2.8 µM
IC50 [7]: 111 ± 2 µM
Effect of mutation on SAG inhibition potency ([8]; hSERT Tyr95 to Phe (S1) vs WT-hSERT, APP+ transport): little effect
IC50 ([8]; hSERT Y95F (S1), 2 μM APP+ 5 min, intact HeLa cells, read-out: SAG IC50 for transport): 4.45 ± 0.17 µM
